{"source": "patent US6489307B1", "about": "“Antisense compositions targeted to β1-adrenoceptor-specific mRNA and methods of use” (University of Florida, priority 1998, dated 2002)", "key": {"PRA": {"test_system": "PRA", "experimental": "PRA was determined with an angiotensin I (^125I) radioimmunoassay kit (DuPont). Plasma Ang II levels were measured by radioimmunoassay as previously described (Phillips and Kimura, 1988)."}, "SHRs [1]": {"test_system": "SHRs", "test": "Telemetric monitoring of conscious SHRs during dobutamine infusion", "type": "in vivo, rat (SHR)", "experimental": "Two days after catherization of the jugular vein, control values were taken and 1 mg/kg β1-AS-ODN was injected. 48 hr later, rats were tested for the effect of β1-AS-ODN. The rats were allowed to recover until all the cardiovascular parameters returned to control values. […] For β1-stimulation, SHRs were infused with dobutamine (β1-selective agonist) through a jugular vein catheter at 5, 10, 20, and 40 μg·kg^−1·min.^−1. Each dose was given for 5 min. continuously and at 1-hr intervals until all the cardiovascular parameters returned to baseline values so as to avoid the effect of tachyphylaxis. BP and HR were sampled every 1 min. dP/dtmax was calculated from the slope of the rising pulse-pressure curve and determined every 1 min. The difference between values at each dose and baseline was denoted as Δ.\nTwo days after catheterization of jugular vein, control values were taken and 1 mg/kg β1-AS-ODN was injected. Forty-eight hr later, rats were tested for the effect of β1-AS-ODN. The rats were allowed to recover until all the cardiovascular parameters returned to control values. […] For β1-stimulation, SHR were infused with dobutamine (β1-selective agonist) through jugular vein catheter at 5, 10, 20, 40 μg/kg/min. Each dose was given for 5 min continuously and at 1-hr intervals until all cardiovascular parameters returned to baseline so as to avoid the effect of tachyphylaxis. BP and HR were sampled every min. dP/dtmax was calculated from the slope of the rising pulse pressure curve and determined every min. The difference between values at each dose and baseline was denoted as Δ."}, "SHRs [2]": {"test_system": "SHRs", "type": "in vivo, rat (SHR)", "experimental": "(§1) Each rat cage was placed on a receiver (RLA 1020, Data Sciences, St. Paul, Minn.) for measurement of cardiovascular parameters. Data were collected with a computer-based data acquisition program (Dataquest Lab-PRO3.0; Data Sciences). BP and HR were measured every 10 min. and averaged every 1 to 24 hrs. Before treatment, SHRs were monitored for a week to get a stable baseline.\nas §1, with “(RLA1020,” for “(RLA 1020,”, “Sciences)” for “Sciences, St. Paul, Minn.)”, “LabPRO3.0;” for “Lab-PRO3.0;”, “min” for “min.”, “hr.” for “hrs.”, “SHR” for “SHRs”"}, "[3]": {"test": "Tissue histology after repeated injections", "type": "in vivo, rat (SHR)", "conditions": "three repeated injections, more than 2 months", "from_the_text": "Safety profiles including liver transaminases, hematology, immune response and tissue pathology were investigated during three repeated injections of β1-AS-ODNs for extended periods of time.\nHeart, liver, spleen and kidney were subjected to pathological examination after three repeated injections of β1-AS-ODN for more than 2 months."}, "β2-AR": {"test_system": "β2-AR", "test": "β-adrenergic receptor binding assay on renal cortex membranes", "type": "in vivo, rat (SHR)", "conditions": "0.5 mg/kg i.v.", "experimental": "Four days after intravenous injection of saline (n=6) or 0.5 mg/kg inverted ODN (n=6) or 4, 10, 18 and 40 days after injection of 0.5 mg/kg β1-AS-ODN (n=24), animals were euthanized, and membranes were prepared from the renal cortex of the left kidneys as previously described (Baker and Pitha, 1982). For saturation studies, 100 μg membrane protein was incubated in triplicate with 6 concentrations of [^125](−)iodocyanopindolol (ICYP, NEN Life Science, 6.25 to 100 pmol/L) in a total volume of 250 μL containing 50 mmol/L Tris-HCl (pH 7.4) and 5 mmol/L MgCl2 at 36° C. for 60 min. The nonspecific and β2-adrenergic receptor binding levels were determined in the presence of 1 μmol/L (±)-alprenolol and […] CGP20712A (RBI), respectively. Then the reaction mixture was passed through a Whatman GF/B glass fiber filter with a Brandel harvester, and the bound radioactivity was counted for 1 min."}}, "note": "Read-outs that look alike come from different tables or passages of the source."}
{"substance": "5′-CCGCGCCCATGCCGA-3′ (phosphorothioate backbone, further chemistry not given here) [β1-AS-ODN, 15-mer antisense ODN targeted to the AUG start codon of rat β1-AR mRNA]", "values": [{"measurement": "PRA", "setting": "PRA; day 4", "value": "not on day 4"}, {"measurement": "PRA", "setting": "PRA; day 10 and day 18", "value": "significantly decreased"}, {"measurement": "time after injection until decrease in PRA and Ang II occurred", "setting": "PRA; single injection", "value": "≈ 10 days"}, {"measurement": "basal (resting) HR", "setting": "SHRs [1]; 1 mg/kg, control 365±8", "value": "365±12", "unit": "bpm"}, {"measurement": "basal dP/dtmax", "setting": "SHRs [1]; 1 mg/kg, control 2937±277", "value": "2922±249", "unit": "mm Hg/s"}, {"measurement": "resting dP/dtmax", "setting": "SHRs [1]; 1 mg/kg, control 2937±277", "value": "2922±249", "unit": "mmHg/sec"}, {"measurement": "change in HR in the face of dobutamine", "setting": "SHRs [1]; 48 hr after 1 mg/kg", "value": "not significantly reduced"}, {"measurement": "increase in dP/dtmax in the face of dobutamine", "setting": "SHRs [1]; 48 hr after 1 mg/kg", "value": "significantly (P<0.02) dampened"}, {"measurement": "duration of antihypertensive effect", "setting": "SHRs [2]; 1 mg/kg, liposomes 1:0.5", "value": 8, "unit": "days"}, {"measurement": "maximum drop in mean BP", "setting": "SHRs [2]; 1 mg/kg, liposomes 1:0.5", "value": 15, "unit": "mm Hg"}, {"measurement": "reflex tachycardia", "setting": "SHRs [2]; rat, in vivo", "value": "no reflex tachycardia"}, {"measurement": "pathological examination of heart, liver, spleen and kidney", "setting": "[3]", "value": "No immunopathology or organ damage"}, {"measurement": "β2-AR level in renal cortex", "setting": "β2-AR", "value": "not affected"}]}
